{"source": "patent US5608095A", "about": "“Alkyl-4-silyl-phenols and esters thereof as antiatherosclerotic agents” (Hoechst Marion Roussel, Inc., priority 1996, dated 1997)", "key": {"[1]": {"test": "HPLC quantitation of compound and metabolite concentration in rabbit serum and liver", "assay_type": "in vivo, female New Zealand White rabbits", "details": "diet 0.4%, 7 days", "method": "(§1) Five independent experiments were performed in the following manner. […] Female New Zealand White rabbits (Hazelton, ~2.0-2.3 kg) were fed 0.2% cholesterol enriched rabbit chow (Purina #5322) with or without 0.4% MDL compound (except, MDL 108,804 at 0.26% and MDL 103,491 repeated at 0.6%). The MDL compounds were solubilized in 100% ethanol. MDL 108,208 was not soluble in 100% ethanol, but it was soluble in diethyl ether:ethanol (3:2 by volume). The chow was sprayed with the MDL mixtures and allowed to dry overnight in a chemical fume hood. Control chow was sprayed with ethanol. Rabbits were fed 100 grams food per day for 7 days (0.6% MDL 103,491 were fed for 14 days); water was available ad libitum. On day 7, rabbits (fasted overnight) were bled (~2 mL) from marginal ear vein; 0.6% MDL 103,491 treated rabbits were tested on day 14. They were euthanized by carbon dioxide overdose. The total body and liver weights were recorded in grams. Food consumption was recorded as grams.cndot.day^-1 .cndot.rabbit^-1. Aliquots of fresh serum were used for clinical chemistries, lipoprotein cholesterol determination, thiobarbituric acid reactive substances (TBARS) and compound and metabolite concentrations in serum. Livers (~5 gram aliquots) were frozen at -20° C. for compound and metabolite concentration determination at a later time.\nSerum and liver concentrations of parent compounds and the metabolites, bisphenol and diphenoquinone, were determined by reverse phase HPLC using a Waters 990 Powerline system. Livers (1 gram) were homogenized with 5.0 mL PBS, pH 7.4, using a Polytron tissue homogenizer at setting 5 for 20-30 seconds. Serum or liver homogenates were extracted as follows: 100 μL of either serum or homogenate were added to 2.0 mL diethyl ether:ethanol (3:1) while vortexing the tube. The sample tubes were capped and centrifuged for 10 min at 5° C. at 3500 rpm in a Beckman GPKR centrifuge with a GH 3.7 rotor. The supernatants were transferred to clean tubes and dried under N2. Samples were reconstituted with 200 μL of acetonitrile:hexane:0.1M ammonium acetate (90:6.5:3.5, by vol.). Then, 100 μL were injected onto a Waters Deltapak C18-300 Å column, and eluted with an 83% acetonitrile:17% water mobile phase at a flow rate of 1.5 mL/min. Absrobances at the wavelengths of 240, 254, and 420 nm were recorded. Compound concentrations were calculated from known quantities of authentic parent compounds after correction for recovery; the range of recovery from spiked samples was 40 to 100%. The lowest detectable limit for this class of compounds was ~0.5 μg/mL. Concentrations were calculated as μg/mL of serum and μg/g of liver."}, "[2]": {"test_system": "serum cholesterol, LDL, HDL, triglycerides", "test": "Serum lipids and lipoprotein cholesterol in cholesterol-fed female New Zealand White rabbits", "assay_type": "in vivo", "details": "Oryctolagus cuniculus, po, 168 h, rabbit serum, diet 0.4%, 7 days", "method": "as §1\nBlood was allowed to clot at room temperature for 30 minutes. Serum was obtained after centrifugation for 10 min at 5° C. at 3000 rpm in a Beckman GPKR centrifuge with a GH rotor. Fresh serum was analyzed by a COBAS MIRA autoanalyzer (Roche Diagnostics) using Roche diagnostic reagents for total cholesterol (CHOL, kit #44334) and triglyceride (TG, kit #44120). Cholesterol and triglycerides were calculated as mg/dL.\nLipoprotein fractions (very low density lipoprotein, VLDL, low density lipoprotein, LDL and high density lipoprotein, HDL) were separated on a Sepharose 6HR column (1×30 cm, Pharmacia) attached to a Waters Powerline HPLC system. Fifty μL of serum were injected onto the column and eluted with phosphate buffered saline, pH 7.4, at a flow rate of 0.5 mL/min. Cholesterol reagent (Roche Diagnostics, kit #44334, diluted with 20 mL water and then with 20 mL of 0.9% saline) was added at 0.2 mL/min to the post column eluant and incubated in a knitted PFTE Kratos reaction coil (Applied Biosystems) at 37° C. for 5 min. Absorbance was measured at 500 nm. The lipoprotein subfractions were quantitated as follows: [formula]"}, "[3]": {"test": "Food consumption, body and liver weight in cholesterol-fed rabbits", "assay_type": "in vivo, female New Zealand White rabbits", "details": "diet 0.4%, 7 days", "method": "as §1"}, "[4]": {"test": "Solubility in solvent for spraying on chow", "assay_type": "physicochemical", "method": "as §1"}, "[5]": {"test_system": "oxidation of serum lipids", "test": "TBARS assay, serum of cholesterol-fed rabbits", "assay_type": "in vivo, female New Zealand White rabbits", "details": "Oryctolagus cuniculus, po, 168 h; rabbit serum, diet 0.4%, 7 days; read-out: TBARS, percent of control", "method": "as §1\nTBARS are a qualitative indication of the oxidation of lipids in a sample. In this assay the oxidation of serum lipids is initiated with CuSO4, resulting in the formation of aldehydes, such as malondialdehyde (MDA). Upon incubation with thiobarbituric acid, the absorbance of the aldehydes can be detected at 530-540 nm. TBARS values which are lower than control serum values indicate the relative ability of a compound to inhibit the oxidation. TBARS were measured as follows: 50 μL of serum were mixed with 50 μL of 0.9% saline and 400 μL of a 5 mM CuSO4 solution and incubated at 37° C. for 5 hr. The reactions were stopped by addition of 1.0 mL of 20% trichloroacetic acid. Then 1.0 mL of 0.67% thiobarbituric acid in 0.05N sodium hydroxide was added, mixed, and the samples incubated for 30 min at 90° C. Samples were centrifuged briefly to pellet undissolved material, and the supernatants were transferred to a 96-well microtiter plate. Absorbances were measured at 540 nm using a Biotek model EL311 microplate reader. The nmoles of MDA produced were calculated from a standard curve of 0 to 10 nmoles of MDA prepared from malonaldehyde bis(dimethylacetal). Serum samples from treated rabbits were compared to serum samples from control rabbits that received no MDL compound."}}, "note": "Like-named read-outs stand apart in the source and are kept apart here.", "data": [{"compound": "COc1ccc([Si](C)(COc2cc(C(C)(C)C)c(O)c(C(C)(C)C)c2)c2ccc(OC)cc2)cc1", "note": "[MDL 108,208]", "values": [{"measurement": "Liver Parent = parent compound concentration", "setting": "[1]; rabbit liver", "value": 0, "unit": "µg/g"}, {"measurement": "Serum Parent = parent compound concentration", "setting": "[1]; rabbit serum", "value": 0, "unit": "µg/mL"}, {"measurement": "response vs control in vivo at 0.4 %", "setting": "[2]; read-out: HDL cholesterol, percent of control", "value": 97, "unit": "%"}, {"measurement": "response vs control in vivo at 0.4 %", "setting": "[2]; read-out: LDL cholesterol, percent of control", "value": 117, "unit": "%"}, {"measurement": "response vs control in vivo at 0.4 %", "setting": "[2]; read-out: TRIG (triglycerides), percent of control", "value": 107, "unit": "%"}, {"measurement": "response vs control in vivo at 0.4 %", "setting": "[2]; read-out: chol tot. (total cholesterol), percent of control", "value": 109, "unit": "%"}, {"measurement": "food (grams eaten per day per rabbit), percent of control", "setting": "[3]", "value": 100, "unit": "%"}, {"measurement": "body wt., percent of control", "setting": "[3]; rabbit", "value": 97, "unit": "%"}, {"measurement": "lw/bw (liver weight/body weight), percent of control", "setting": "[3]; rabbit", "value": 103, "unit": "%"}, {"measurement": "solubility in 100% ethanol", "setting": "[4]; 100% ethanol", "value": "not soluble"}, {"measurement": "solubility in diethyl ether:ethanol", "setting": "[4]; diethyl ether:ethanol (3:2 by volume)", "value": "soluble"}, {"measurement": "response vs control in vivo at 0.4 %", "setting": "[5]", "value": 89, "unit": "%"}]}]}
